Assays:
[1] = test system: CD4+ or CD8+ T cells from wt- or DD1α−/− mice; assay: Mouse T cell activation assay (CFSE proliferation); assay type: cell-based
Protocol: Enriched CD4+ and CD8+ T cells from Wt and DD1α−/− mice were stimulated, with 2.5 μg/ml anti-CD3 alone or together with DD1α-Ig or control Ig. The proliferations of CD4+ T cells (top graphs) or CD8+ T cells (bottom graphs) were determined by the percentage of CFSE-diluted CD8+ cells on day 3. The levels of cytokines (IFN-γ and TNF-α) in culture supernatant on day 2 were analyzed by ELISA. The results represent mean±SD from three experiments.
The inventors have discovered that DD1αregulates T cell activation through DD1α on T cells. […] The proliferations of CD4+ T cells were determined by percentage of CFSE-diluted CD4+ cells on day 3 and IFN-γ and levels in culture supernatants on day 2 were analyzed by ELISA. […] The proliferations of CD8+ T cells were determined by percentage of CD8+ T cells containing diluted CFSE signal on day 3. The cytokine levels in culture supernatant were analyzed by ELISA on day 2.
The amount of Ig protein was kept constant at 10 μg/ml by the addition of control Ig protein. Human CD4+ or CD8+ T cells were purified from freshly isolated PBMCs using CD4+ T Cell Isolation Kit II, human or CD8+ T Cell Isolation Kit, human (Miltenyi Biotec). Mouse CD4+ and CD8+ T cells were purified from splenocytes freshly isolated from mice using CD4+ T Cell Isolation Kit II, mouse or CD8a+ T Cell Isolation Kit II, mouse (Miltenyi Biotec). Purity was confirmed to be over 90% by flow cytometry. The T cells were labeled with 1 μM CFSE, quenched by cold FBS and incubated in the anti-CD3 & Ig proteins-coated plates. On day 2 after stimulation, supernatant was collected and cytokines were assayed by ELISA. On day 3, cells were stained with anti-CD4-APC (OKT4, eBioscience for human CD4+ T cells; RM4-5, eBioscience for mouse CD4+ T cells) or anti-CD8-APC (SK1, eBioscience for human CD8+ T cells; 53-6.7, eBioscience for mouse CD8+ T cells) and then analyzed for CFSE dilution by flow cytometry.

[2] = test system: naïve CD4+CD62L+ T cells; assay: iTreg cell development assay; assay type: cell-based, mouse; conditions: for frequency of Foxp3+CD4+ T cells (iTreg): anti-CD3 and anti-CD28
Protocol: Enriched human CD4+ T cells and CD8+ T cells were stained with CFSE (1 μM) and stimulated with plate-bound anti-CD3 antibody (3 μg/ml) together with 2, 5, or 10 μg/ml of DD1α-Ig proteins or control Ig proteins. The proliferations of CD4+ T or CD8+ T cells were determined by the percentages of CFSE-labeled CD4+ T or CD8+ T cells at the 72-hour culture. The levels of cytokines IFN-γ and TNF-α in culture supernatant were analyzed by ELISA at the 48-hour culture. […] The proliferation and cytokine production of CD4+ T cells were determined as FIG. 5A. […] The proliferations of CD4+ T cells were determined by percentage of CFSE-diluted CD4+ cells on day 3. The levels of cytokines IFN-γ and IL-2 in culture supernatant were analyzed by ELISA on day 2. […] Data are shown as mean±SD and representative of three experiments.
The cell culture plates were coated with anti-CD3 (145-2C11, eBioscience) together with mDD1α-Ig, mPD-L1-Ig or control Ig proteins. CD4+CD62L+naïve T cells were purified from splenocytes freshly isolated from Wt mice using CD4+CD62L+ T Cell Isolation Kit II (Miltenyi Biotec) and cultured in complete RPMI-1640 media added by anti-CD28 (37.51, eBioscience) and TGF-β (BioLegend) on the anti-CD3 & Ig proteins-coated plates. On day 3, cells were stained with anti-CD4-APC (RM4-5, eBioscience) and anti-mouse Foxp3-PE (FJK-16s, eBioscience) and analyzed for Foxp3 expression on CD4+ T cells by flow cytometry.

[3] = test system: DD1α; assay: Ig fusion protein staining of 293T transfectants (flow cytometry); assay type: binding, human; conditions: cell surface staining
Sequence of DD1α (Q9H7M9 33-311): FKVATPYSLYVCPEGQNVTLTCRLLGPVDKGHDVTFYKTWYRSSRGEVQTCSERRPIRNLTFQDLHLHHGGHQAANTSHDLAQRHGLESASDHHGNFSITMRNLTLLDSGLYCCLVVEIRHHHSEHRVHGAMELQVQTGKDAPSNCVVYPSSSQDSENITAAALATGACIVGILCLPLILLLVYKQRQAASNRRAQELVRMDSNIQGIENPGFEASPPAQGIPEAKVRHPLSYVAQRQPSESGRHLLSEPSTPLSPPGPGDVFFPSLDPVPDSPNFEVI
Protocol: The bound Ig fusion proteins were detected with anti-Ig-APC. Empty vector (pcDNA3.1)-transfected cells stained with Ig proteins are shown as a negative control (gray filled) and other staining is shown as black open. […] Purified CD4+ T cells from Wt and DD1α−/− mice were assayed for binding to Ig fused DD1α or PD1 proteins. […] The bound Ig fusion proteins were detected by anti-Ig-APC. Binding amounts were determined by percentage of APC positive cells compared to control Ig protein-bound cells. […] The bead bound proteins were eluted and determined by western blot analysis using anti-HA antibody (asterisks). […] The bead bound proteins were eluted and detected by western blot analysis with anti-DD1α or anti-PD1 antibody (asterisk). […] MCF7 cells were treated by Nutlin-3 (10 μM) for 1 to 3 days. MCF7 cells were transfected with control siRNA or p53 siRNA for 24 hours and treated with CPT (500 nM) or DMSO (control) for 1 and 2 days. The levels of indicated proteins were analyzed by western blot analysis. Total RNAs from control siRNA or p53 siRNA transfected MCF7 cells were assessed for mRNA levels of PD1 or PD-L1 by real-time quantitative PCR.

DD1α-Ig: the extracellular region of DD1α fused with the immunoglobulin G Fc segment
inhibition of anti-CD3-induced CD4+ or CD8+ T cell proliferation ([1]; DD1α−/− CD4+ or CD8+ T cells): ~30%
inhibition of anti-CD3-induced CD4+ or CD8+ T cell proliferation ([1]; T cells from wt mice): ~50%
mouse CD4+ and CD8+ T cell activation ([1]; dose-dependent): inhibitory effect
iTreg cell generation ([2]; alone without TGF-β): did not affect
frequency of Foxp3+CD4+ T cells (iTreg) ([2]; 1 ng/ml TGF-β, control Ig 14.2%): 31.4%
frequency of Foxp3+CD4+ T cells (iTreg) ([2]; 2 ng/ml TGF, control Ig 32.6%): 51.7%
iTreg cell development ([2]; in the presence of TGF-β): significantly enhanced
binding to DD1α-transfected 293T cells [3]: specifically bound

Reference: patent publication US20170184604A1, “DD1ALPHA RECEPTOR AND USES THEREOF IN IMMUNE DISORDERS” (THE GENERAL HOSPITAL CORPORATION, priority 2014, published 2017)
